Data set [1] has as its system isolated rat bladder strips. The experiment in a line: Inhibition of contractions of isolated rat bladder strips. Conditions: strips stimulated with additional 15 mM KCl; for inhibition at 30 µM: maximum percentage inhibition of contractile activity, read-out: % Inhibition of Contractility @ 30 μM; for IC50: 0.5 h, concentration eliciting 50% inhibition of pre-drug contractile activity, 30 minute challenge per concentration, read-out: IC50. The protocol:
The compounds of the examples were tested to determine their ability to inhibit contractions of isolated rat bladder strips. See Foster, C. […] Malmgren, A. et al. J.Urol.
Male Sprague-Dawley rats (150-200 g) were obtained from ACE animal suppliers. Animals were allowed free access to food and water.
Animals were euthanized by CO2 asphyxiation followed by a bilateral thoracotomy. […] The bladder was opened and then cut into strips 1-2 mm in width and 7-10 mm in length. The strips were subsequently suspended in a 10 ml tissue bath under an initial resting tension of 1.5 g. The strips were held in place by two surgical clips one of which was attached to a fixed hook while the other was attached to an isometric force transducer. […] The carbachol was then washed out and the tissue allowed to relax to its resting level of activity. Following a further 30 minute period of recovery an additional 15 mM KCl were introduced into the tissue bath. […] Following stabilization of this enhanced level of contractile activity, incremental increases in the concentration of test compound or vehicle were introduced into the tissue bath. Contractile activity was measured for each compound or vehicle concentration during the last minute of a 30 minute challenge.
Isometric force developed by the bladder strips was measured using a force transducer and recorded on a polygraph. Contractile activity was assessed by measuring either the average amplitude of the contractions (baseline to peak force) occurring during a one minute period or, preferably, by integrating the contractile activity with respect to time (one minute measuring period).
The percentage inhibition of contractile activity evoked by each concentration of a given test compounds was used to generate a concentration-response curve.

The inhibition is the drop in the measured response relative to a control, in per cent. In general, melting point refers to the temperature of the solid-liquid transition. With `O=C(Nc1ccc2oc3c(c2c1)CCCC3)c1ccc([N+](=O)[O-])cc1` [Example 15, 4-NITRO-N-(6,7,8,9-TETRAHYDRO-DIBENZOFURAN-2-YL)-BENZAMIDE], the melting point is 279 to 280 °C. In data set [1], the inhibition at 30 µM fell in the range of 10 to 20%.

`Nc1ccc(C(=O)Nc2ccc3oc4c(c3c2)CCCC4)cc1` [Example 16, 4-AMINO-N-(6,7,8,9-TETRAHYDRO-DIBENZOFURAN-2-YL)-BENZAMIDE] came in with a melting point of 207 to 208 °C. Further, in data set [1], the inhibition at 30 µM lay in the range of 5 to 10%.

The compound `O=C(Nc1ccc2oc3c(c2c1)CCCC3)c1ccccc1` [Example 18, N-(6,7,8,9-TETRAHYDRO-DIBENZOFURAN-2-YL)-BENZAMIDE] registered a melting point of 178 to 180 °C. Moreover, the inhibition at 30 µM in data set [1] was in the range of 40 to 50%.

One may read the IC50 as the midpoint of a concentration-inhibition curve. Compound `CC(C)(C)CC(=O)Nc1ccc2oc3c(c2c1)CCC3` [Example 23, N-(2,3-DIHYDRO-1H-CYCLOPENTA[B]BENZOFURAN-7-YL)-3,3-DIMETHYL-BUTYRAMIDE] registered a melting point of 195.5 to 197 °C. In addition, the IC50 in data set [1] lay in the range of 350 to 530 nM.

With `CC(C)(C)C(=O)Nc1ccc2oc3c(c2c1)CCC3` [Example 24, N-(2,3-DIHYDRO-1H-CYCLOPENTA(b)BENZOFURAN-7-YL)-2,2-DIMETHYL-PROPIONAMIDE], the melting point was 188.5 to 190 °C. Moreover, the IC50 in data set [1] is 1000 to 5000 nM.

On to `CC(C)CC(=O)Nc1ccc2oc3c(c2c1)CCC3` [Example 25, N-(2,3-DIHYDRO-1H-CYCLOPENTA[B]BENZOFURAN-7-YL)-3-METHYL-BUTYRAMIDE], for which the melting point is 162 to 163 °C. Besides, the IC50 in data set [1] is 3000 to 8000 nM.

The compound `CC(C)(C)CC(=O)Nc1ccc2oc3c(c2c1)CCCCC3` [Example 26, 3,3-DIMETHYL-N-[7,8,9,10-TETRAHYDRO-6H-Benzo[B]-CYCLOHEPTA[d]FURAN-2-YL]BUTYRAMIDE] registered a melting point of 182 to 183 °C. Further, the IC50 in data set [1] lay in the range of 200 to 700 nM.

The compound `CC(C)(C)C(=O)Nc1ccc2oc3c(c2c1)CCCCC3` [Example 27, 2,2-DIMETHYL-N-(6,7,8,9-TETRAHYDRO-5H-10-OXA-BENZO[A]AZULEN-3-YL)-PROPIONAMIDE] displayed a melting point of 208 to 209 °C. The IC50 in data set [1] is 100 to 400 nM.

`CC(C)CC(=O)Nc1ccc2oc3c(c2c1)CCCCC3` [Example 28, 3-METHYL-N-[7,8,9,10-TETRAHYDRO-6H-Benzo[B]-Cyclohepta[D]FURAN-2-YL]BUTYRAMIDE] registered a melting point of 162 to 163 °C. Also, the IC50 in data set [1] lay in the range of 1000 to 5000 nM.

With `O=C(CC1CCCCC1)Nc1ccc2oc3c(c2c1)CCCCC3` [Example 29, 2-CYCLOHEXYL-N-[7,8,9,10-TETRAHYDRO-6H-BENZO[B]-CYCLOHEPTA[d]FURAN-2-YL]ACETAMIDE], the melting point fell in the range of 188 to 189 °C. Also, the IC50 in data set [1] lay within 1000 to 10000 nM.

The compound `CC(C)(C)CC(=O)Nc1ccc2oc3c(c2c1)CCCCCC3` [Example 62, 3,3-DIMETHYL-N-[6,7,8,9,10,11-HEXAHYDRO-BENZO[B]-CYCLOOCTA[D]FURAN-2-YL]BUTYRAMIDE] showed a melting point of 157 to 158 °C. The IC50 in data set [1] was 1000 to 5000 nM.

As to `CC(C)(C)C(=O)Nc1ccc2oc3c(c2c1)CCCCCC3` [Example 63, 2,2-DIMETHYL-N-[6,7,8,9,10,11-HEXAHYDRO-BENZO[B]-CYCLOOCTA[D]-FURAN-2-YL]PROPIONAMIDE], the melting point was in the range of 189 to 190 °C. Further, in data set [1], the IC50 fell in the range of 110 to 250 nM.

Turning to `CC(C)CC(=O)Nc1ccc2oc3c(c2c1)CCCCCC3` [Example 64, 3-METHYL-N-[6,7,8,9,10,11-HEXAHYDRO-BENZO[B]-CYCLOOCTA[D]-FURAN-2-YL]BUTYRAMIDE], the melting point is 154 to 155 °C. Also, the IC50 in data set [1] was 100 to 500 nM.

`O=C(CC1CCCCC1)Nc1ccc2oc3c(c2c1)CCCCCC3` [Example 65, 2-CYCLOHEXYL-N-[6,7,8,9,10,11-HEXAHYDRO-BENZO[B]-CYCLOOCTA[D]FURAN-2-YL]ACETAMIDE] gave a melting point of 180 to 181 °C. For the same compound, the half-maximal inhibitory concentration (IC50) in data set [1] was in the range of 4000 to 10000 nM.

For `CC(C)(C)NC(=O)Nc1ccc2oc3c(c2c1)CCCC3` [Example 83, 1-TERT-BUTYL-3-(6,7,8,9-TETRAHYDRO-DIBENZOFURAN-2-YL)-UREA], the melting point is 310 to 312 °C (dec.). Moreover, the IC50 in data set [1] is 4000 to 5000 nM.

As to `CCN(CC)C(=O)Nc1ccc2oc3c(c2c1)CCCC3` [Example 84, 1,1-DIETHYL-3-(6,7,8,9-TETRAHYDRO-DIBENZOFURAN-2-YL)-UREA], the melting point lay within 179 to 180 °C. Moreover, the IC50 in data set [1] lay within 3000 to 5000 nM.

The record behind these values is patent US7601856B2 (Wyeth, priority 2006, dated 2009).
